From US20230141887A1, “CRYSTAL FORM OF DIAZASPIROPYRAN COMPOUND” (MEDSHINE DISCOVERY INC., priority 2020, published 2023) come the findings set out here.

Data set [1] in a line: In vivo pharmacokinetic assay in rats. On the set-up: species or system SD male rats. How it is done:
SD male rats aged 7 to 10 weeks were selected. The rats were fasted for at least 12 hours before the administration, and resumed feeding 4 hours after the administration. The rats had free access to water throughout the assay period.
On the day of the assay, the animals in the intravenous group were administrated the corresponding compound through a single injection in the tail vein at an administration volume of 5 mL/kg; the oral group were administrated the corresponding compound through a single intragastric gavage at an administration volume of 10 mL/kg. The animals were weighed before administration, and the administration volume was calculated based on the body weight. The time for collecting samples was: 0.083 (the injection group), 0.25, 0.5, 1, 2, 4, 6, 8, 24 h. About 200 μL of whole blood was collected from the jugular vein at each time point to prepare plasma for concentration determination by high-performance liquid chromatography-tandem mass spectrometry (LC-MS/MS). All animals were euthanized by CO2 anesthesia after collecting the PK samples at the last time point. The plasma concentrations were processed by non-compartmental model of WinNonlin™ Version 6.3 (Pharsight, Mountain View, Calif.) pharmacokinetic software, and the pharmacokinetic parameters were calculated by the linear logarithm trapezoidal method.

Another data set has as its target T1, FLT3(ITD, F691L) (Homo sapiens, UniProt P36888, F691L, form not given).
T1 construct: fused on or other part: DNA tag for the qPCR read-out (the KINOMEscan format)
T1 sequence (P36888 1-993 F691L): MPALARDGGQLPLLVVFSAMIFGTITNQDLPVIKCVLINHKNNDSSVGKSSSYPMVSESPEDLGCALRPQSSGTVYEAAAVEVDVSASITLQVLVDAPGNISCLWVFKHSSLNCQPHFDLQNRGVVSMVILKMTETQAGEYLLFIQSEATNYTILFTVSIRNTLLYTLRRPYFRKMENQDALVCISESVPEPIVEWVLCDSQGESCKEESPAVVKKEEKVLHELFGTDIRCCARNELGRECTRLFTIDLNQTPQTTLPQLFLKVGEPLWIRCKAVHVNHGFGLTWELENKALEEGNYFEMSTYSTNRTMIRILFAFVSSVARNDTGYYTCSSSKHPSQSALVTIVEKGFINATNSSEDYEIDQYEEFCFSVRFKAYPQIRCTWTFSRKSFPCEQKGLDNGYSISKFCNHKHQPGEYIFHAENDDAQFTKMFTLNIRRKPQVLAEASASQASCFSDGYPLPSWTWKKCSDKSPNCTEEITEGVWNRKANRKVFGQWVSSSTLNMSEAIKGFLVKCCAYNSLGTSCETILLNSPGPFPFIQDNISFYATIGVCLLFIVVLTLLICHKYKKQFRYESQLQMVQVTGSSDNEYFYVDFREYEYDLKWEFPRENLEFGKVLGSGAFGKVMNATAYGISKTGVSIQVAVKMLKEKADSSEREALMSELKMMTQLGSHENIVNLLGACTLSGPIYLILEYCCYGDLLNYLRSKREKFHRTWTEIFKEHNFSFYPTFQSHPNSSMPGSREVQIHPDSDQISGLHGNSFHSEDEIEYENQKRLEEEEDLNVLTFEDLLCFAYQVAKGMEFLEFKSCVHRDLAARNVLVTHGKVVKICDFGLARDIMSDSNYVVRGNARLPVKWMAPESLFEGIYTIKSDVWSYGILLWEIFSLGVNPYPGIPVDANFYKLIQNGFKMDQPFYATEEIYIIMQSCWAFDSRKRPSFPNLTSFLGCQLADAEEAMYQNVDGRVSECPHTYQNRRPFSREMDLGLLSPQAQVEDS
In kind it is binding.

Data set [2] relates to human biphenotypic B bone marrow mononuclear leukemia cell MV4-11 subcutaneous xenograft tumor. Put plainly: Inhibition of MV4-11 subcutaneous xenograft tumor in vivo. On the set-up: species or system nude mice. The settings on record: for % Inhibition rate on day 14 / Average tumor volume Day 14: Oral, Once a day. The method, then:
In this assay, the anti-tumor effect of the compounds was evaluated using a nude mice model of subcutaneous xenograft tumor of human biphenotypic B bone marrow mononuclear leukemia cell MV4-11.
Human biphenotypic B bone marrow mononuclear leukemia cell MV4-11 was cultured in vitro in suspension with a RPMI1640 medium supplemented with 10% fetal bovine serum, 100 U/mL penicillin and 100 μg/mL streptomycin in a 5% CO2 cell incubator at 37° C. Routine passaging was performed twice a week. Cells in the logarithmic growth phase were collected, counted and then used for inoculation.
0.2 mL (1×10^7) of MV4-11 cells (plus matrigel, with a volume ratio of 1:1) were inoculated subcutaneously on the right back of each mouse. The grouping and dosing were started when the average tumor volume reached about 140-200 mm^3.
The diameter of the tumor was measured with vernier calipers twice a week. The formula for calculating the tumor volume is: V=0.5a×b^2, where a and b represent the long and short diameters of the tumor, respectively.

The nature of data set [3]: In vivo pharmacokinetic assay in dogs. Set-up: species or system Male Beagle dogs. The settings on record: 1 mg/kg. The method, then: Male Beagle dogs older than 6 months of age were selected. On the day of the assay, the animals were given the corresponding compound by single injection in the cephalic or saphenous vein in a volume of 1 mL/kg for the intravenous group; and by single gavage in a volume of 5 mL/kg for the oral group. The animals were weighed before administration and the dosing volume of the compound was calculated based on their body weight. About 0.5 mL of whole blood was collected from the cephalic or saphenous vein at each time point to prepare plasma for determination of concentrations by high performance liquid chromatography-tandem mass spectrometry (LC-MS/MS). Plasma concentrations were processed using non-compartment model of WinNonlin™ Version 6.3 or above (Pharsight, Mountain View, Calif.) pharmacokinetic software, and pharmacokinetic parameters were calculated using the linear log trapezoidal method.

With `CCc1nc(C(N)=O)c(Nc2ccc(N3CCC4(CCN(C)CC4)CC3)c(C)c2)nc1NC1CCOCC1.O=C(O)C(F)(F)F`, in data set [1] (Injection, 1 mg/kg), the AUC0-last turned out to be 457 nm·h, the Cl came out at 61.2 mL/min/kg, the T1/2 came out at 2.99 h and the Vdss is 13.3 L/kg. Moreover, in data set [1] (Oral, 2.5 mg/kg), the highest level (Cmax) was 40.6 nM, the F% is reported as 44.7% and the Tmax was found to be 8.00 h. For the same molecule, the Kd on FLT3(ITD, F691L) (FLT3(ITD, F691L)) was 0.21 nM. In addition, the “activity higher than that of the known compound B” value at FLT3(ITD, F691L) (FLT3 (ITD, F691L), ratio of Kd versus compound B) was found to be 3.6 times. Also, in data set [2] (1 mg/kg), the “% Inhibition rate on day 14” value is given as 66.1% and the “Average tumor volume Day 14” value was determined as 375 mm^3. In data set [2] (1.5 mg/kg), the “% Inhibition rate on day 14” value stood at 81.0% and the “Average tumor volume Day 14” value is recorded as 273 mm^3. Also, in data set [2] (4.5 mg/kg), the “% Inhibition rate on day 14” value is on record as 114.7% and the “Average tumor volume Day 14” value came to 51 mm^3. Besides, the “Average tumor volume Day 0” value in data set [2] (Day 0, one value for all groups, before dosing) amounted to 149 mm^3. Also, in data set [3] (Injection), the AUC0-last was 765 nm·h, the Cl stood at 34.2 mL/min/kg, the T1/2 was found to be 9.83 h and the Vdss is 28.9 L/kg. Besides, in data set [3] (Oral), the Cmax turned out to be 21.1 nM, the F% is reported as 41.6% and the time of peak concentration (Tmax) was 4.00 h.

Broadly, the Vdss is the apparent volume that relates the amount in the body to the concentration in plasma or blood. Low values mean confinement near the circulation, high ones extensive tissue distribution. Broadly, the Cmax is the highest concentration seen after dosing. In general, Tmax refers to the time at which the peak concentration occurs. Usually Kd stands for the concentration at which binding is half-saturated. High values mean a looser complex, low ones a tighter complex.
